Here are results for three molecules from patent publication US11805799B2, “Composition for preventing, relieving or treating climacteric disorders comprising lactic acid bacteria and prebiotics” (CELL BIOTECH CO., LTD., priority 2019, dated 2023).

One test concerns the target ERβ (Homo sapiens, UniProt Q92731). The note with it: background statement; cited from earlier work.
Another test deals with estrogen receptor (ER). The note with it: background statement; cited from earlier work.
The nature of test [1]: Equol productivity of probiotic strains cultured in soybean germ extract (S30). The note with it: inoculated into 30% isoflavone-containing soybean germ extract (S30), 37° C., 48 hours. The protocol: A probiotic strain having the ability to produce equol from a soybean germ extract (S30) containing 30 wt % of isoflavone was selected.
First, a soybean germ extract was prepared using 40 g/L of a soybean germ extract (S30, prepared by Seorim Bio) containing 30 wt % of isoflavone and sterile water. The pH of the soybean germ extract was adjusted to 6.7 using 5M NaOH. The entire soybean germ extract was sterilized by autoclaving at 121° C. for 15 minutes. Microorganisms were activated in rehydrated MRS (Mann Rogosa Sharpe) broth (De Mann et al. 1960) at 37° C. for 20 hours three times, followed by fourth activation in the sterile soybean germ extract at an inoculum level of 5% (v/v). 40 to 400 mL of the sterile soybean germ extract was inoculated with the active culture (5% v/v), and incubated at 37° C. for 24 hours to hydrolyze isoflavone glycosides. The strain activated in the soybean germ extract was used.
In addition, samples were taken at regular time intervals in a time-dependent manner and measured for β-glucosidase activity. […] The sequence of the above screening steps was determined flexibly. That is, strains producing equol were first screened, and then β-glucosidase activity was measured, or strains having high β-glucosidase activity were first screened, and then whether the strains produced equol was examined. […]

Chain of ERβ (Q92731 whole entry): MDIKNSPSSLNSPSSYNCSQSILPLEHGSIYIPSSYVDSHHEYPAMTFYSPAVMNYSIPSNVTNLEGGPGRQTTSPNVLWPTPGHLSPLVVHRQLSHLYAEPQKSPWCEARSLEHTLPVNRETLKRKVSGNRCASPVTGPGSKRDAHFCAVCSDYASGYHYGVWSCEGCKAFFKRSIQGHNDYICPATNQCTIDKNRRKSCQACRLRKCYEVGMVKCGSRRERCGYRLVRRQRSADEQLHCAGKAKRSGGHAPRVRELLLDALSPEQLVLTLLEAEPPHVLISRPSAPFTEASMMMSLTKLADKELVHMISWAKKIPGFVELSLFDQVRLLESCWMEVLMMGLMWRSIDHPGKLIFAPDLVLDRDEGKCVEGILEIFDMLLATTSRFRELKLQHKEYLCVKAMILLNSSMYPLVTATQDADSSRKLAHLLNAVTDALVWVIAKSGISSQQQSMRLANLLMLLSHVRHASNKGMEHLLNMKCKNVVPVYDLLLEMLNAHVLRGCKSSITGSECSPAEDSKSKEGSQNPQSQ

For the molecule `Oc1ccc([C@H]2COc3cc(O)ccc3C2)cc1` [Equol], on ERβ, the “affinity for ERβ” value is listed as “high affinity for ERβ”. In addition, in the test with estrogen receptor (ER), the ER binding affinity entry is listed as “higher ER binding affinity than daidzein”.
On to `O=c1c(-c2ccc(O)cc2)coc2cc(O)ccc12` [daidzein], for which the ER binding affinity entry with estrogen receptor (ER) is “exhibits estrogen receptor (ER) binding affinity”.
In the case of Bifidobacterium longum, the “equol production / equol productivity in culture supernatant” value in test [1] was “equol was produced”.
